Values of other authors, collected in patent US20190125685A1, “COMPOSITE CAPSULE PREPARATION CONTAINING TADALAFIL AND TAMSULOSIN AND HAVING IMPROVED STABILITY AND ELUTION RATE” (HANMI PHARM. CO., LTD., priority 2016, published 2019).

Settings: in vivo

Half-life relative to that of sildenafil or vardenafil: ≥ 3 times
SMILES: CN1CC(=O)N2[C@H](c3ccc4c(c3)OCO4)c3[nH]c4ccccc4c3C[C@@H]2C1=O [Tadalafil]
